From EP4725957A1, “GROUP OF CYCLIC ALKALINE LIPOPEPTIDE COMPOUNDS, AND PREPARATION METHOD THEREFOR AND USE THEREOF” (Institute of Medicinal Biotechnology, Chinese Academy of …, priority 2023, dated 2024)
In brackets after ≈: the same amount, converted by molar mass. Numbered stars: 1 amine (or outer) side, 2 acyl side, 3 side chain; on linkers, the order of the positions; unused ones are H or OH. Bridge positions count the residues as written; N and C are the ends. Square brackets hold non-standard residues; d marks the D form. Peptide text beside a SMILES is read from it. * marks the point of attachment. X3 = O=C([C@@H](Cc1ccc(CS(=O)(=O)O)cc1)N[*:1])[*:2]; X2 = O=C([C@H](CNCS(=O)(=O)O)N[*:1])[*:2]; Heptanoyl(6-Me) = CC(C)CCCCC(=O)*; Nonanoyl = CCCCCCCCC(=O)*; X1 = CC[C@H](C)CCCCC(=O)*; Orn = NCCC[C@H](N)C(=O)O; dDap = NC[C@@H](N)C(=O)O; Dab = NCC[C@H](N)C(=O)O; Dap = NC[C@H](N)C(=O)O

Columns and labels:
Assay type in all cases: cell-based
[1] = system: Acinetobacter baumannii NCTC 13304 (OXA-27); conditions: NCTC 13304
Outline: (§1)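 The MIC value comes from CLSI broth microdilution after 16-20 h at 35-37°C. Cyclic lipopeptides in Mueller-Hinton broth spanned 64 to 0.03 mg/L final, with each well carrying (2-4) × 10^5 CFU/mL.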

[2] = system: Escherichia coli ATCC BAA-2340 (KPC); conditions: ATCC BAA-2340
Outline: as §1

[3] = system: Pseudomonas aeruginosa ATCC 27853; conditions: ATCC 27853
Outline: as §1

[4] = system: Pseudomonas aeruginosa PAE19-3; conditions: PAE19-3
Outline: as §1

[5] = system: Klebsiella pneumoniae ATCC BAA-1705 (KPC); conditions: ATCC BAA-1705
Outline: as §1

[6] = system: Klebsiella pneumoniae KPN+19-15; conditions: KPN+19-15
Outline: as §1

[7] = system: Acinetobacter baumannii ABA19-1; conditions: ABA19-1
Outline: as §1

[8] = system: Escherichia coli ATCC BAA-2523; conditions: ATCC BAA-2523
Outline: as §1

[9] = Nephrotoxicity assay: in vitro cytotoxicity of HK-2 cells by CCK-8 assay; conditions: human, HK-2 cells (human renal), 72 h incubation with drug-containing medium
Outline: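 Compounds in sterile water, diluted to final 500, 250, 200, 100, 50, 25 and 12.5 µg/mL, were applied for 72 h to human HK-2 kidney cells. Absorbance at 450 nm after 3 h CCK-8 gave viability against untreated wells, and IC50 came from logarithmic regression; three replicates.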

Row | Structure (SMILES) | MIC [1] [µg/mL] | MIC [2] [µg/mL] | MIC [3] [µg/mL] | MIC [4] [µg/mL] | MIC [5] [µg/mL] | MIC [6] [µg/mL] | MIC [7] [µg/mL] | MIC [8] [µg/mL] | IC50 at 72 h [9] [µg/mL]
1 | CC[C@H](C)CCCCC(=O)N[C@@H](CCN)C(=O)N[C@H](C(=O)N[C@H](CN)C(=O)N[C@H]1CCNC(=O)[C@H]([C@@H](C)O)NC(=O)[C@H](CCN)NC(=O)[C@H](CCN)NC(=O)[C@H]([C@@H](C)O)NC(=O)[C@H](Cc2ccccc2)NC(=O)[C@H](CCN)NC1=O)[C@@H](C)O [Compound 101, (S)-6-methyloctanoyl-Dab-Thr-D-Dap-ring(4-10)[Dab-Dab-Phe-Thr-Dab-Dab-Thr]] (X1-[Dab]T[dDap][Dab][Dab]FT[Dab][Dab]T; lactam 4-C) | >64 | >64 | >64 | >64 | >64 | >64 | >64 | >64 | > 500
2 | CCCCCCCCC(=O)N[C@@H](CCCN)C(=O)N[C@H](C(=O)N[C@H](CO)C(=O)N[C@H]1CCNC(=O)[C@H]([C@@H](C)O)NC(=O)[C@H](CCN)NC(=O)[C@H](CCN)NC(=O)[C@H]([C@@H](C)O)NC(=O)[C@@H](Cc2ccccc2)NC(=O)[C@H](CCN)NC1=O)[C@@H](C)O [Compound 60, Nonanoyl-Orn-Thr-D-Ser-ring(4-10)[Dab-Dab-D-Phe-Thr-Dab-Dab-Thr]] (Nonanoyl-[Orn]T[dS][Dab][Dab][dF]T[Dab][Dab]T; lactam 4-C) | 0.25 (≈ 0.21 µM) | 0.25 (≈ 0.21 µM) | 64 (≈ 53.7 µM) | 8 (≈ 6.71 µM) | 0.25 (≈ 0.21 µM) | 0.5 (≈ 0.419 µM) | 0.25 (≈ 0.21 µM) | 0.25 (≈ 0.21 µM) | 281 ± 9.5 (≈ 235 µM)
3 | CC(C)CCCCC(=O)N[C@@H](CCN)C(=O)N[C@H](C(=O)N[C@@H](CNCS(=O)(=O)O)C(=O)N[C@H]1CCNC(=O)[C@H]([C@@H](C)O)NC(=O)[C@H](CCN)NC(=O)[C@H](CCN)NC(=O)[C@H]([C@@H](C)O)NC(=O)[C@@H](Cc2ccccc2)NC(=O)[C@H](CCN)NC1=O)[C@@H](C)O [Compound 112, 6-methylheptanoyl-Dab-Thr-Dap(CH2SO3H)-ring(4-10)[Dab-Dab-D-Phe-Thr-Dab-Dab-Thr]] ({Heptanoyl(6-Me)}-[Dab]T[X2][Dab][Dab][dF]T[Dab][Dab]T; lactam 4-C) | 0.06 (≈ 0.0477 µM) | 0.03 (≈ 0.0239 µM) | 0.25 (≈ 0.199 µM) | 0.25 (≈ 0.199 µM) | 0.125 (≈ 0.0994 µM) | 0.125 (≈ 0.0994 µM) | 0.06 (≈ 0.0477 µM) | 0.03 (≈ 0.0239 µM) | > 500
4 | CC(C)CCCCC(=O)N[C@@H](CCN)C(=O)N[C@H](C(=O)N[C@@H](CN)C(=O)N[C@H]1CCNC(=O)[C@H]([C@@H](C)O)NC(=O)[C@H](CCN)NC(=O)[C@H](CCN)NC(=O)[C@H]([C@@H](C)O)NC(=O)[C@@H](Cc2ccc(CS(=O)(=O)O)cc2)NC(=O)[C@H](CCN)NC1=O)[C@@H](C)O [Compound 116, 6-methylheptanoyl-Dab-Thr-Dap-ring(4-10)[Dab-Dab-D-Phe(4-CH2SO3H)-Thr-Dab-Dab-Thr]] ({Heptanoyl(6-Me)}-[Dab]T[Dap][Dab][Dab][X3]T[Dab][Dab]T; lactam 4-C) | 0.06 (≈ 0.0477 µM) | 0.03 (≈ 0.0239 µM) | 0.25 (≈ 0.199 µM) | 0.25 (≈ 0.199 µM) | 0.125 (≈ 0.0994 µM) | 0.125 (≈ 0.0994 µM) | 0.06 (≈ 0.0477 µM) | 0.03 (≈ 0.0239 µM) | > 500
5 | CC[C@H](C)CCCCC(=O)N[C@@H](CCN)C(=O)N[C@H](C(=O)N[C@@H](CCCN)C(=O)N[C@H]1CCNC(=O)[C@H]([C@@H](C)O)NC(=O)[C@H](CCN)NC(=O)[C@H](CCN)NC(=O)[C@H](CC(C)C)NC(=O)[C@@H](Cc2ccccc2)NC(=O)[C@H](CCN)NC1=O)[C@@H](C)O [Compound 46, (S)-6-methyloctanoyl-Dab-Thr-Orn-ring(4-10)[Dab-Dab-D-Phe-Leu-Dab-Dab-Thr]] (X1-[Dab]T[Orn][Dab][Dab][dF]L[Dab][Dab]T; lactam 4-C) | 0.06 (≈ 0.0493 µM) | 0.03 (≈ 0.0246 µM) | ≤0.03 | 0.25 (≈ 0.205 µM) | ≤0.03 | ≤0.03 | 0.125 (≈ 0.103 µM) | 0.03 (≈ 0.0246 µM) | 287 ± 10.7 (≈ 236 µM)
